# How the values were obtained:
# [1] = biological target: rat H3R (Rattus norvegicus, UniProt Q9QYN8); assay: receptor binding
# [2] = biological target: human histamine H3 receptor (hH3R) (Homo sapiens, UniProt Q9Y5N1); assay: [3H]-Nα-methylhistamine competition binding; details: for pK i trans ± SEM: kept in dark, >99 % trans
# [3] = biological target: mouse H3R (Mus musculus, UniProt P58406); assay: receptor binding
# Chain of mouse H3R (P58406 whole entry): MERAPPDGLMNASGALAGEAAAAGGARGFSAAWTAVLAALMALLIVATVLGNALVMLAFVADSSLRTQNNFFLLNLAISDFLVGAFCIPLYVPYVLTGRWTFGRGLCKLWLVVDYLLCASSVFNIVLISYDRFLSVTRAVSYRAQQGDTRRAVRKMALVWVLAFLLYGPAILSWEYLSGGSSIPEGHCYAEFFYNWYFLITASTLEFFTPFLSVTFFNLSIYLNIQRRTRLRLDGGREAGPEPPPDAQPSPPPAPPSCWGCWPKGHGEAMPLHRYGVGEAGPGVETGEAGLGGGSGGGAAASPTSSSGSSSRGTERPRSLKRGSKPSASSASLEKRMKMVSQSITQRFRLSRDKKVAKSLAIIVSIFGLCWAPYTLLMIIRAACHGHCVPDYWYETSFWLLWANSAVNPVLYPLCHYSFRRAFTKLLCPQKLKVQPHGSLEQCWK
# Chain of human histamine H3 receptor (hH3R) (Q9Y5N1 whole entry): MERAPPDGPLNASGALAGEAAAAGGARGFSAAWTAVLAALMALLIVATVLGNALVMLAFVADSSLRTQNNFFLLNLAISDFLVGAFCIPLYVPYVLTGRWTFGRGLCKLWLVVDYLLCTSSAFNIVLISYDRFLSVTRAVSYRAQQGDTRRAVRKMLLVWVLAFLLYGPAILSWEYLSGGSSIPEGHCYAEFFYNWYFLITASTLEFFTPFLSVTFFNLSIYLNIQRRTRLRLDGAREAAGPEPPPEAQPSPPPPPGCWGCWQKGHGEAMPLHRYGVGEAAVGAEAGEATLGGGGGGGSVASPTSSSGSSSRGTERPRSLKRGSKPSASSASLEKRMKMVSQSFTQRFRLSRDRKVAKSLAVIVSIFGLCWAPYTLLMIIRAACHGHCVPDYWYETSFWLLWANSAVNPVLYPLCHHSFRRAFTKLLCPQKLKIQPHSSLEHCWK
# Chain of rat H3R (Q9QYN8 whole entry): as the sequence (P58406 whole entry) above, with A15T, T286A, G290A, H387R, V389I counted along it
SMILES,Ki [2] [nM],also measured
"c1ccc(/N=N\c2cccc(Cc3c[nH]cn3)c2)cc1 [compound 65, cis-65 (PSS cis)]",32.4,pKi ([1]; PSS cis): high nM (trans) to low μM (PSS cis) binding affinities for both mouse and rat; pKi ([3]; PSS cis): high nM (trans) to low μM (PSS cis) binding affinities for both mouse and rat
"c1ccc(/N=N/c2cccc(Cc3c[nH]cn3)c2)cc1 [compound 65, trans-65]",3.8,pKi ([1]; trans): high nM (trans) to low μM (PSS cis) binding affinities for both mouse and rat; pKi ([3]; trans): high nM (trans) to low μM (PSS cis) binding affinities for both mouse and rat
"Fc1ccccc1/N=N\c1cccc(Cc2c[nH]cn2)c1 [compound 66, 66 cis (PSS cis)]",81.3,
"Fc1ccccc1/N=N/c1cccc(Cc2c[nH]cn2)c1 [compound 66, 66 trans]",5.25,
"Fc1cccc(/N=N\c2cccc(Cc3c[nH]cn3)c2)c1 [compound 67, 67 cis (PSS cis)]",38,
"Fc1cccc(/N=N/c2cccc(Cc3c[nH]cn3)c2)c1 [compound 67, 67 trans]",4.47,
"Fc1ccc(/N=N\c2cccc(Cc3c[nH]cn3)c2)cc1 [compound 68, 68 cis (PSS cis)]",309,
"Fc1ccc(/N=N/c2cccc(Cc3c[nH]cn3)c2)cc1 [compound 68, 68 trans]",20.4,
"Fc1cccc(F)c1/N=N\c1cccc(Cc2c[nH]cn2)c1 [compound 69, 69 cis (PSS cis)]",55,
"Fc1cccc(F)c1/N=N/c1cccc(Cc2c[nH]cn2)c1 [compound 69, 69 trans]",10,
"Clc1ccccc1/N=N\c1cccc(Cc2c[nH]cn2)c1 [compound 70, 70 cis (PSS cis)]",141,
"Clc1ccccc1/N=N/c1cccc(Cc2c[nH]cn2)c1 [compound 70, 70 trans]",13.8,
"Clc1ccc(/N=N\c2cccc(Cc3c[nH]cn3)c2)cc1 [compound 71, 71 cis (PSS cis)]",1050,
"Clc1ccc(/N=N/c2cccc(Cc3c[nH]cn3)c2)cc1 [compound 71, 71 trans]",174,
"Cc1c(Cc2c[nH]cn2)cccc1/N=N\c1ccccc1 [compound 72, 72 cis (PSS cis)]",3550,
"Cc1c(Cc2c[nH]cn2)cccc1/N=N/c1ccccc1 [compound 72, 72 trans]",2690,
"Cc1ccc(/N=N/c2ccccc2)cc1Cc1c[nH]cn1 [compound 73, 73 trans]",,pK i trans ± SEM [2]: 6.90±0.06
"Cc1cc(Cc2c[nH]cn2)cc(/N=N\c2ccccc2)c1 [compound 74, 74 cis (PSS cis)]",7410,
"Cc1cc(Cc2c[nH]cn2)cc(/N=N/c2ccccc2)c1 [compound 74, 74 trans]",1780,
"Cc1ccc(Cc2c[nH]cn2)cc1/N=N/c1ccccc1 [compound 75, 75 trans]",,pK i trans ± SEM [2]: 7.15±0.03
"Cc1ccccc1/N=N\c1cccc(Cc2c[nH]cn2)c1 [compound 76, 76 cis (PSS cis)]",398,
"Cc1ccccc1/N=N/c1cccc(Cc2c[nH]cn2)c1 [compound 76, 76 trans]",19.1,
"Cc1cccc(/N=N\c2cccc(Cc3c[nH]cn3)c2)c1 [compound 77, 77 cis (PSS cis)]",347,
"Cc1cccc(/N=N/c2cccc(Cc3c[nH]cn3)c2)c1 [compound 77, 77 trans]",40.7,
"Cc1ccc(/N=N\c2cccc(Cc3c[nH]cn3)c2)cc1 [compound 78, 78 cis (PSS cis)]",1950,
"Cc1ccc(/N=N/c2cccc(Cc3c[nH]cn3)c2)cc1 [compound 78, 78 trans]",1910,
"Fc1ccc(/N=N/c2ccccc2)cc1Cc1c[nH]cn1 [compound 79, 79 trans]",,pK i trans ± SEM [2]: 7.81±0.07
"Fc1ccc(Cc2c[nH]cn2)cc1/N=N/c1ccccc1 [compound 80, 80 trans]",,pK i trans ± SEM [2]: 8.39±0.06

# Source: publication PMC6563694 (Angewandte Chemie (International Ed. in English), 2019)
